The values that follow come from paper PMC5605781 (Journal of medicinal chemistry, 2017).

One experiment concerns HIV-1. The following applies: antiviral activity; cited from earlier work.
Experiment [1] concerns seven HIV-1 variants selected in vitro with SQV, APV, LPV, IDV, NFV, ATV, TPV. Put plainly: microbe, parasite or virus in culture. The format is cell-based. To be noted: Human immunodeficiency virus 1, read-out: IC50 values, range over variants.
The subject of the next experiment is HIV-1NL4-3. Put plainly: Antiviral p24 assay in MT-4 cells, wild-type HIV-1NL4-3. It counts as cell-based. To be noted: wild-type HIV-1NL4-3, compared to DRV.

Molecules are shown by their SMILES.

By EC50 is commonly meant the concentration that produces a half-maximal response. In the case of `COc1ccc(S(=O)(=O)N(CC(C)C)C[C@@H](O)[C@H](Cc2ccccc2)NC(=O)O[C@H]2CO[C@H]3OCC[C@H]32)cc1` [Inhibitor 3], in the experiment with HIV-1, the EC50 was 0.5 nM.

Broadly, the IC50 is the point on the concentration scale where inhibition reaches its midpoint. As for `CC(C)CN(C[C@@H](O)[C@H](Cc1ccccc1)NC(=O)O[C@H]1C2CO[C@H]3OCC1C3C2)S(=O)(=O)c1ccc2nc(NC3CC3)sc2c1` (stereo partly drawn) [Inhibitor 5, (3S,7aS,8S)-Hexahydro-4H-3,5-methanofuro[2,3-b]pyran-8-yl ((2S,3R)-4-((2-(cyclopropylamino)-N-isobutylbenzo[d]thiazole)-6-sulfonamido)-3-hydroxy-1-phenylbutan-2-yl)carbamate], the IC50 in experiment [1] lay in the range of 0.0026 to 0.27 nM. Moreover, in the experiment on HIV-1NL4-3, the “factor of more potent block of replication compared to DRV” value is given as 10.
